These results are taken from patent publication US9822069B2, “Urea derivative or pharmacologically acceptable salt thereof” (KYORIN PHARMACEUTICAL CO. LTD., priority 2013, dated 2017).

Structures are written as SMILES.

The assay concerns the target T1, human FPRL1 (Homo sapiens, UniProt P25090).
T1 construct: expressed in transfected cells; host or cells: HEK293 (JCRB9068, NIBIO), transient transfection with pCMV-script vectors using Lipofectamine 2000
T1 sequence (P25090 1-351): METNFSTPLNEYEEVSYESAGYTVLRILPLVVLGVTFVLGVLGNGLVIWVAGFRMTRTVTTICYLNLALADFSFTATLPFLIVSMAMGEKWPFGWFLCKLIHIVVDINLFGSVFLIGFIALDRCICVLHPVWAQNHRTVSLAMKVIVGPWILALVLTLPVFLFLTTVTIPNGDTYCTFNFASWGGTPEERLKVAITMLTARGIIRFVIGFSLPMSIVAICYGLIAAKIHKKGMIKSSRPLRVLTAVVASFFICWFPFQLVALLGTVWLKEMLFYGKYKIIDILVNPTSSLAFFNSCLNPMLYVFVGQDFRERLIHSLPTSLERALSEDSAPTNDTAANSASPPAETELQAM
Briefly: Measurement test of agonist activity on human FPRL1 (test of calcium mobilization in cell, HEK293 with human FPRL1 and Gα15 expression vectors). It is filed as cell-based. The following applies: calcium mobilization in HEK293 cells with human FPRL1 and Gα15 expression vectors. The text has this:
Measurement Test of Agonist Activity on Human FPRL1
(1-1) Construction of Human FPRL1 Expression Vector
Human FPRL (SEQ ID NO: 3) was amplified in a PCR reaction from cDNA derived from a monocytic leukemia cell line THP-1 (TIB-202, ATCC) as a template using a forward primer shown in SEQ ID NO: 1, a reverse primer shown in SEQ ID NO: 2, and KOD-plus-ver. 2 (KOD-211, TOYOBO CO., LTD.). The amplified PCR product and pCMV-script vector (212220, STRATAGENE) were digested with Hind III (1060A, Takara Bio Inc.) and XhoI (1094A, Takara Bio Inc.), and the resultant digest was ligated with Ligation high ver. 2 (LGK-201, TOYOBO CO., LTD.). The ligation product was transformed into DH5α (DNA-901, TOYOBO CO., LTD.), cultured on a 100 μg/mL kanamycin-containing LB medium, and purified with HiSpeed Plasmid Maxi Kit (12662, QIAGEN).
(1-2) Construction of Human Gα15 Expression Vector
Human Gα15 (SEQ ID NO: 6) was amplified in a PCR reaction from cDNA derived from a myeloid leukemia cell line HL-60 (CCL-240, ATCC) as a template using a forward primer shown in SEQ ID NO: 4, a reverse primer shown in SEQ ID NO: 5, and KOD-plus-ver. 2. The amplified PCR product and pCMV-script vector were digested with Hind III and XhoI, and the resultant digest was ligated with Ligation high ver. 2. The ligation product was transformed into DH5α, cultured on a 100 μg/mL kanamycin-containing LB medium, and purified with HiSpeed Plasmid Maxi Kit.
(2-1) Method for Culturing and Subculturing HEK293
HEK293 (JCRB9068, NIBIO) was cultured in an incubator at 5% CO2 and 37° C. using DMEM (11885-092, GIBCO) containing 10% FBS and 1× Penicillin-Streptomycin (15140-122, GIBCO). Subculture was carried out as followings: The cells that reached 80 to 90% confluency were washed with PBS(−), separated using 0.25% Trypsin-EDTA (25200-072, GIBCO), centrifuged, re-suspended in a fresh medium, and then seeded in Collagen Type 1 Coated dish (4020-010, IWAKI) at a split ratio of 1:8 (cultured for 3 days).
(2-2) Introduction of Human FPRL1 and Gα15 Expression Vectors
HEK293 that reached 80 to 90% confluency was washed with PBS(−), separated using 0.25% Trypsin-EDTA, centrifuged, and re-suspended in a fresh medium excluding 1× Penicillin-Streptomycin. The cells were inoculated in a Collagen Type 1 coated 6-well plate (4810-010, IWAKI) to 5×10^5 cells/2.5 mL/well and cultured overnight. On the next day, human FPRL1 and Gα15 expression vectors were introduced using Lipofectamine 2000 transfection reagent (11668-019, Life technologies). First, the human FPRL1 and Gα15 expression vectors were diluted with Opti-MEM I Reduced Serum Medium (31985-070, GIBCO) to 2 μg/250 μL/well and Lipofectamine 2000 transfection reagent was diluted with Opti-MEM I Reduced Serum Medium to be 4 μL/250 μL/well. The vectors and reagent were softly diffused, and incubated at room temperature for 5 minutes. The vector solution was mixed with Lipofectamine 2000 transfection reagent in equal amounts. In order to form a composite of the vectors and Lipofectamine 2000 transfection reagent, the mixture was incubated at room temperature for 20 minutes, and added at 500 μL/well to the medium of inoculated cells. The treated cells were cultured for 24 hours, inoculated in Poly-D-Lysine coated 96-well plate (356640, BD Biosciences) at a cell density of 7×10^4 cells/100 μL/well, and cultured for another 24 hours. The resultant cells were used in a measurement test of calcium mobilization in the cells.
(3) Evaluation of Agonist Activity on Human FPRL1 (Test of Calcium Mobilization in Cell)
An appropriate amount of each test compound was first weighed, and dissolved to 10^−2 M by addition of dimethyl sulfoxide (DMSO). […]
For orientation: A change in cytosolic calcium serves as a functional read-out for many receptors and channels.
As for `COc1ccc(NC(=O)N[C@@H]2C(=O)NC[C@H]2c2c(F)cc(OC)cc2F)cc1` (single isomer, unassigned) [EXAMPLE 1-24, (−)-1-[(3S*,4R*)-4-(2,6-difluoro-4-methoxyphenyl)-2-oxopyrrolidin-3-yl]-3-(4-methoxyphenyl)urea], the concentration for a half-maximal effect (EC50) (in general, the midpoint of the concentration-response curve) was 3.2 nM.
`COc1cc(F)c([C@@H]2CN/C(=N\OCCO)[C@H]2NC(=O)Nc2cc3ccccc3s2)c(F)c1` (single isomer, unassigned) [EXAMPLE 32-15, (−)-1-(benzo[b]thiophen-2-yl)-3-{(3S*,4R*,Z)-4-(2,6-difluoro-4-methoxyphenyl)-2-[(2-hydroxyethoxy)imino]pyrrolidin-3-yl}urea]: the concentration giving a half-maximal response (EC50) is 0.27 nM.
With `COc1cc(F)c([C@@H]2CN(C)C(=O)[C@H]2NC(=O)Nc2cc3ccccc3s2)c(F)c1` (relative stereo) [Example 24-5, (−)-1-(benzo[b]thiophen-2-yl)-3-[(3S*,4R*)-4-(2,6-difluoro-4-methoxyphenyl)-1-methyl-2-oxopyrrolidin-3-yl]urea], the EC50 was determined as 1.6 nM.
With `CSc1ccc([C@@H]2CNC(=O)[C@H]2NC(=O)Nc2ccc(F)cc2)cc1` (single isomer, unassigned) [EXAMPLE 1-20, (−)-1-(4-fluorophenyl)-3-[(3S*,4R*)-4-(4-methylthiophenyl)-2-oxopyrrolidin-3-yl]urea], the EC50 was 1.75 nM.
With `COc1ccc([C@@H]2CN(C(C)(C)CO)C(=O)[C@H]2NC(=O)Nc2ccc(F)cc2)cc1` (relative stereo) [Example 12-4, (−)-1-(4-fluorophenyl)-3-[(3S*,4R*)-1-(1-hydroxy-2-methylpropan-2-yl)-4-(4-methoxyphenyl)-2-oxopyrrolidin-3-yl]urea], the EC50 is 0.05 nM.
Consider `COc1cc(F)c([C@@H]2CNC(=O)[C@H]2NC(=O)Nc2ncc(Cl)s2)c(F)c1` (relative stereo) [Example 1-26, (−)-1-(5-chlorothiazol-2-yl)-3-[(3S*,4R*)-4-(2,6-difluoro-4-methoxyphenyl)-2-oxopyrrolidin-3-yl]urea], for which the EC50 came out at 1.91 nM.
As for `CNC(=O)C(C)(C)N1C[C@@H](c2ccc(OC)cc2)[C@H](NC(=O)Nc2ccc(F)cc2)C1=O` (relative stereo) [Example 23-1, (−)-2-{(3S*,4R*)-3-[3-(4-Fluorophenyl)ureido]-4-(4-methoxyphenyl)-2-oxopyrrolidin-1-yl}-N,2-dimethylpropionamide], the EC50 is 0.09 nM.
For the molecule `COc1ccc([C@@H]2CNC(=O)[C@H]2NC(=O)Nc2ccc(C#N)cc2)cc1` (single isomer, unassigned) [EXAMPLE 1-5, (−)-1-(4-cyanophenyl)-3-[(3S*,4R*)-4-(4-methoxyphenyl)-2-oxopyrrolidin-3-yl]urea], the EC50 was determined as 2.88 nM.
Turning to `COc1cc(F)c([C@@H]2CN(Cc3ccccc3)C(=O)[C@H]2NC(=O)Nc2ccc(F)cc2)c(F)c1` (relative stereo) [Example 24-12, (−)-1-[(3S*,4R*)-1-benzyl-4-(2,6-difluoro-4-methoxyphenyl)-2-oxopyrrolidin-3-yl]-3-(4-fluorophenyl)urea], the EC50 stood at 2.2 nM.
With `COc1cc(F)c([C@@H]2CN(CS(N)(=O)=O)C(=O)[C@H]2NC(=O)Nc2ccc(F)cc2)c(F)c1` (relative stereo) [Example 24-15, (−)-{(3S*,4R*)-4-(2,6-difluoro-4-methoxyphenyl)-3-[3-(4-fluorophenyl)ureido]-2-oxopyrrolidin-1-yl}methanesulfonamide] the figure was 0.03 nM.
With `COc1cc(F)c([C@@H]2CN(Cc3cccnc3)C(=O)[C@H]2NC(=O)Nc2ccc(F)cc2)c(F)c1` (relative stereo) [Example 24-13, (−)-1-[(3S*,4R*)-4-(2,6-difluoro-4-methoxyphenyl)-2-oxo-1-(pyridin-3-ylmethyl)pyrrolidin-3-yl]-3-(4-fluorophenyl)urea] the figure was 0.11 nM; with `CCOC(=O)CN1C[C@@H](c2c(F)cc(OC)cc2F)[C@H](NC(=O)Nc2ccc(F)cc2)C1=O` (single isomer, unassigned) [EXAMPLE 24-16, (−)-2-{(3S*,4R*)-4-(2,6-difluoro-4-methoxyphenyl)-3-[3-(4-fluorophenyl)ureido]-2-oxopyrrolidin-1-yl}acetic acid ethyl ester], 0.15 nM.
Regarding `O=C(Nc1ccc(F)cc1)N[C@@H]1C(=O)N(CC2CC2)C[C@H]1c1cc2c(cc1F)OCC2` (single isomer, unassigned) [EXAMPLE 24-22, (−)-1-[(3S*,4R*)-1-(cyclopropylmethyl)-4-(6-fluoro-2,3-dihydrobenzofuran-5-yl)-2-oxopyrrolidin-3-yl]-3-(4-fluorophenyl)urea], the EC50 stood at 1.32 nM.
In the case of `O=C(Nc1ccc(F)cc1)N[C@@H]1C(=O)NC[C@H]1c1cc2ccoc2cc1F` (relative stereo) [Example 1-77, (−)-1-[(3S*,4R*)-4-(6-fluorobenzofuran-5-yl)-2-oxopyrrolidin-3-yl]-3-(4-fluorophenyl)urea], the half-maximal effective concentration (EC50) is 5.2 nM.
As to `C/N=C1\NC[C@@H](c2c(F)cc(OC)cc2F)[C@@H]1NC(=O)Nc1ccc(F)cc1` (relative stereo) [EXAMPLE 32-6, 1-[(3S*,4R*,Z)-4-(2,6-difluoro-4-methoxyphenyl)-2-(methylimino)pyrrolidin-3-yl]-3-(4-fluorophenyl)urea], the concentration giving a half-maximal response (EC50) came out at 0.37 nM.
On to `COc1ccc([C@@H]2CN/C(=N\O)[C@H]2NC(=O)Nc2ccc(F)cc2)cc1` (single isomer, unassigned) [EXAMPLE 33-1, (−)-1-(4-Fluorophenyl)-3-[(3S*,4R*,Z)-2-(2-hydroxyimino)-4-(4-methoxyphenyl)pyrrolidin-3-yl]urea], for which the EC50 stood at 1.14 nM.
Consider `COc1cc(F)c([C@@H]2CN/C(=N\O)[C@H]2NC(=O)Nc2ccc(F)cc2)c(F)c1` (single isomer, unassigned) [EXAMPLE 33-2, (−)-1-((3S*,4R*,Z)-4-(2,6-Difluoro-4-methoxyphenyl)-2-(hydroxyimino)pyrrolidin-3-yl)-3-(4-fluorophenyl)urea], for which the EC50 stood at 0.03 nM.
Consider `CO/N=C1\NC[C@@H](c2c(F)cc(OC)cc2F)[C@@H]1NC(=O)Nc1ccc(C)cc1` (single isomer, unassigned) [EXAMPLE 32-8, (−)-1-[(3S*,4R*,Z)-4-(2,6-difluoro-4-methoxyphenyl)-2-(methoxyimino)pyrrolidin-3-yl]-3-(p-tolyl)urea], for which the EC50 amounted to 0.44 nM.
`NC(=O)CN1C[C@@H](c2cc3c(cc2F)OCC3)[C@H](NC(=O)Nc2ccc(F)cc2)C1=O` (relative stereo) [Example 17-3, (−)-2-{(3S*,4R*)-4-(6-fluoro-2,3-dihydrobenzofuran-5-yl)-3-[3-(4-fluorophenyl)ureido]-2-oxopyrrolidin-1-yl}acetamide]: the EC50 was 0.29 nM.
